Columns and labels:
Test in all cases: relative viability (nuclei count vs DMSO), 5 days (fraction); higher = more cells survive
[1] = compound: O=C(O)c1ccc2c(c1)nc(Nc1cccc(Cl)c1)c1ccncc12 [Silmitasertib] + CC(=O)c1c(C)c2cnc(Nc3ccc(N4CCNCC4)cn3)nc2n(C2CCCC2)c1=O [Palbociclib] (partner 0.5 µM)
Method in brief: (§1)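 Each reported value is a median over duplicate plates. It expresses relative viability: treated-well nuclei count divided by vehicle-well nuclei count. Lung cancer cell lines in 1536-well plates were dosed by pin tool a day after seeding, alone with one drug or with a fixed anchor-drug dose plus five library-drug doses (not always all listed) in √10 steps, and nuclei were counted after 5 days.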

[2] = compound: O=C(O)c1ccc2c(c1)nc(Nc1cccc(Cl)c1)c1ccncc12 [Silmitasertib] + Nc1nc2[nH]cc(CCc3ccc(C(=O)N[C@@H](CCC(=O)O)C(=O)O)cc3)c2c(=O)[nH]1 [Pemetrexed] (partner 0.2 µM)
Method in brief: as §1

[3] = compound: O=C(O)c1ccc2c(c1)nc(Nc1cccc(Cl)c1)c1ccncc12 [Silmitasertib] + CC(C)C[C@H](NC(=O)[C@H](Cc1ccccc1)NC(=O)c1cnccn1)B(O)O [Bortezomib] (partner 0.002 µM)
Method in brief: as §1

[4] = compound: O=C(O)c1ccc2c(c1)nc(Nc1cccc(Cl)c1)c1ccncc12 [Silmitasertib] + CS(=O)(=O)CCNCc1ccc(-c2ccc3ncnc(Nc4ccc(OCc5cccc(F)c5)c(Cl)c4)c3c2)o1 [Lapatinib] (partner 2 µM)
Method in brief: as §1

[5] = compound: O=C(O)c1ccc2c(c1)nc(Nc1cccc(Cl)c1)c1ccncc12 [Silmitasertib] + CS(=O)(=O)N1CCN(Cc2cc3nc(-c4cccc5[nH]ncc45)nc(N4CCOCC4)c3s2)CC1 [Pictilisib] (partner 1 µM)
Method in brief: as §1

Row | Cell Line | relative viability ([1]; first compound 0.04 µM) | relative viability ([1]; first compound 0.4 µM) | relative viability ([1]; first compound 1.265 µM) | relative viability ([1]; first compound 4 µM) | relative viability ([2]; first compound 0.04 µM) | relative viability ([2]; first compound 0.4 µM) | relative viability ([2]; first compound 1.265 µM) | relative viability ([2]; first compound 4 µM) | relative viability ([3]; first compound 0.04 µM) | relative viability ([3]; first compound 1.265 µM) | relative viability ([3]; first compound 4 µM) | relative viability ([4]; first compound 0.04 µM) | relative viability ([4]; first compound 1.265 µM) | relative viability ([4]; first compound 4 µM) | relative viability ([5]; first compound 0.04 µM) | relative viability ([5]; first compound 1.265 µM) | relative viability ([5]; first compound 4 µM) | relative viability ([3]; first compound 0.4 µM) | relative viability ([4]; first compound 0.4 µM) | relative viability ([5]; first compound 0.4 µM)
1 | NCI-H838 | 0.253 | 0.25 | 0.18 | 0.199 | 0.231 | 0.234 | 0.227 | 0.213 | 1.15 | 0.759 | 0.66 | 1.28 | 0.753 | 0.465 | 0.463 | 0.434 | 0.359 |  |  | 
2 | NCI-H1355 | 0.403 |  | 0.358 | 0.366 | 1.04 |  | 1.01 | 0.852 | 1.27 | 1.16 | 0.929 | 1.08 | 0.883 | 0.726 | 0.419 | 0.367 | 0.293 |  |  | 
3 | NCI-H1437 | 0.305 | 0.26 | 0.221 | 0.222 | 0.337 | 0.3 | 0.254 | 0.228 | 0.594 | 0.384 | 0.474 | 0.865 | 0.483 | 0.347 | 0.42 | 0.261 | 0.217 |  |  | 
4 | NCI-H1650 | 0.5 | 0.436 | 0.25 | 0.186 | 0.339 | 0.454 | 0.387 | 0.319 | 0.375 | 0.232 | 0.195 | 1.4 | 0.671 | 0.23 | 0.781 | 0.348 | 0.211 | 0.192 | 0.825 | 0.459
5 | NCI-H1651 | 0.495 | 0.516 | 0.534 | 0.528 | 0.625 | 0.38 | 0.247 | 0.665 | 0.957 | 1.02 | 0.934 | 1.08 | 0.99 | 0.626 | 0.615 | 0.669 | 0.543 | 0.894 | 0.997 | 0.657
6 | NCI-H1666 | 0.617 | 0.654 | 0.578 | 0.61 | 0.89 | 0.795 | 0.72 | 0.63 | 1.01 | 0.5 | 0.468 | 0.734 | 0.452 | 0.319 | 0.465 | 0.321 | 0.307 | 0.702 | 0.564 | 0.499
7 | NCI-H1734 | 0.343 | 0.326 | 0.323 | 0.36 | 0.443 | 0.336 | 0.423 | 0.386 | 0.911 | 0.827 | 0.841 | 1.14 | 0.948 | 0.785 | 0.514 | 0.424 | 0.313 |  |  | 
8 | NCI-H1755 | 0.436 | 0.443 | 0.456 | 0.447 | 0.422 | 0.489 | 0.383 | 0.386 | 0.91 | 0.95 | 0.945 | 1.03 | 1.07 | 1.16 | 0.431 | 0.441 | 0.375 | 0.905 | 0.979 | 0.441

Reference: the supplement of paper PMC10307832
